Converted amounts (≈) assume the structure as drawn. Like-named read-outs stand apart in the source and are kept apart here.
Tests used:
[1] = Lipid/water partition parameter RM from thin-film chromatography on silica gel; type: physicochemical; settings: for ΔRM solvent 1 / RM solvent 1 / RF solvent 1: Solvent 1: 100% ethyl acetate; for ΔRM solvent 1 / ΔRM solvent 2: RM of derivative minus RM of corresponding alkanolamide; for RM solvent 1 / RM solvent 2: RM=log (1/Rf−1); for RF solvent 1 / RF solvent 2: silica gel; for ΔRM solvent 2 / RM solvent 2 / RF solvent 2: Solvent 2: heptane:isopropanol:ethyl acetate:H2O 40:20:50:2
Method: The chemical and physical characteristics of the derivatives according to the invention were evaluated by quantitative measurement of the lipid/water partition parameter.
A useful parameter for evaluating the properties of a compound in relation to its possible absorption is in fact constituted by the coefficient of partition between the lipid phase and the aqueous phase, which is considered to be an expression of its lipophilicity and its degree of hydrophilicity. […] For the purpose of evaluating the characteristics of the derivatives of the invention, the partition parameter RM between the lipid and the aqueous phase, extrapolated from thin-film partition chromatography, was calculated; this parameter is commonly used to evaluate the lipophilic characteristics of compounds (Tomlinson E. J. Chromatogr. 1975, 113, 1) and is commonly used, for example, for local anaesthetics, in which a correlation has been shown between this parameter and biological activity (Bachrata M. et al. J. Chromatogr. 1979, 171, 29-36).
The partition parameter RM between the lipid phase and the aqueous phase was calculated both for the derivatives and for the non-substituted alkanolamides, from the Rf value obtained by thin-film chromatography on silica gel (particles of […], mean porosity 60 Å, thickness 0.25 mm on glass plate) in accordance with the formula: RM=log (1/Rf−1) and the ΔRM was obtained from the difference between the RM coefficients of the derivative and of the corresponding alkanolamide.

[2] = molecular target: T1, CB2 receptor (Rattus norvegicus, UniProt Q9QZN9); test: Binding of [3H]WIN55,212-2 to membranes of RBL-2H3+ cells; settings: cell membranes, 300 pM ligand, 90' at 30° C.; read-out: Ki CB2 receptor RBL-2H3 + cells Lig. [3H]WIN55, 212-2
T1 construct: endogenous in cells; host or cells: rat RBL-2H3+ leukemic basophilic cells
T1 sequence (Q9QZN9 1-360): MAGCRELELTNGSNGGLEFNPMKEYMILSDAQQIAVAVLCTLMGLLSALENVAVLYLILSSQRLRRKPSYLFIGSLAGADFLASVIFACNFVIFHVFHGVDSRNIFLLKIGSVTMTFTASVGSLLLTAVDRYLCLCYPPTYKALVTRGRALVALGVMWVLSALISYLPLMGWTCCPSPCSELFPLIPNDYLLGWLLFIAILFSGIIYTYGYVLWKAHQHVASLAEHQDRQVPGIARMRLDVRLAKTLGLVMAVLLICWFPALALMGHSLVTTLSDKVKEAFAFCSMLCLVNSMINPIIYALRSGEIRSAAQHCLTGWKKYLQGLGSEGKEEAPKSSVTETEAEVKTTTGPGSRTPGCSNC
Text: (§1) Effect of alkanolamide molecules on the binding of the synthetic ligands of the CB2 and CB1 cannabinoid receptors, respectively.
(§2) Rat RBL-2H3+ leukemic basophilic cells, which selectively express the cannabinoid CB2 receptor, and mouse N18TG2 neuroblastoma cells which selectively express the CB1 cannabinoid receptor were used. The cells were cultivated as described above (Facci L. et al. (1995) Proc. Natl: Acad: Sci. U.S.A. 92:: 3376-3380; Bisogno T. et al. 1997 J. Biol. Chem., 272: 3315-3323). WIN 55,212.2 was used as the selectively agonist synthetic ligand for the CB2 receptor.
HU-210 was used as the selective […] for the CB2 receptor.
(§3) [^3H]SR141716A (55 Ci/mmol) was supplied by Amersham; [^3H]WIN55,212-2 (43 Ci/mmol) was supplied by NEN. The binding tests were performed with membranes of the cells resuspended in 50 mMol Tris pH 7.0 buffer; 2.5 mMol MgCl2, 0.8 mMol EDTA; 0.05% bovine serum albumin (BSA); 0.01% ethanol, in the presence of 100 μM of phenyl-methyl-sulphonyl fluoride (PMSF-Sigma), with the use, of 300 pM of [^3H]SR141716A and of [^3H]WIN55,212-2, respectively, as the ligand.
(§4) The membranes were incubated for 90′ at 30° C. and filtered on glass microfibre filters (GFC-Whatman) and the radioactivity was detected by liquid scintillation. The specific binding was calculated with the use of either 10 μM SR141716A or 10 μM HU-210.
(§5) The Ki values were calculated by Chang-Prusoff's equation and expressed as concentration μM.

[3] = molecular target: T2, CB1 receptor (Mus musculus, UniProt P47746); test: Binding of [3H]SR141716A to membranes of N18TG2 cells; settings: cell membranes, 300 pM ligand, 90' at 30° C.; read-out: Ki CB1 Receptor N18TG2 cells Lig. [3H]SR141716A
T2 construct: endogenous in cells; host or cells: mouse N18TG2 neuroblastoma cells
T2 sequence (P47746 whole entry): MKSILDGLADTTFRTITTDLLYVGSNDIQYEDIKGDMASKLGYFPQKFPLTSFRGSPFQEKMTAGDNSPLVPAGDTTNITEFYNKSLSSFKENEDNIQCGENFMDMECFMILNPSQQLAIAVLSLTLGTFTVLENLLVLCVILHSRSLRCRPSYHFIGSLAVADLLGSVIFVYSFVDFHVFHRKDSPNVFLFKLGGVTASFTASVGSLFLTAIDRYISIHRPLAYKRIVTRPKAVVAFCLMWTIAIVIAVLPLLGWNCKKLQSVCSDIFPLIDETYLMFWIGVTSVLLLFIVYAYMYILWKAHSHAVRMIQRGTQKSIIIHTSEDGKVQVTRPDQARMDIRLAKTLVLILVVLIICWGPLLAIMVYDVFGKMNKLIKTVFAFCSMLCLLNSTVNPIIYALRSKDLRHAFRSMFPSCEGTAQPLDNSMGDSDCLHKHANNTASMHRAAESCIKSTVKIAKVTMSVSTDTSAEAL
Text: as §1, §2
SR141716A was used as the selective antagonist for the CB1 receptor.
as §3, §4, §5

[4] = physchem
[5] = Solubility in water and in organic solvents (chemical and physical characteristics); settings: for solubility in water: in words
[6] = molecular target: T1, CB2 receptor; test: Stimulation of cyclic AMP (cAMP) by forskolin in RBL-2H3+ cells; type: cell-based; settings: 1 μM forskolin
Method: Effect of alkanolamide molecules on the stimulation of cyclic AMP (cAMP) by forskolin.
The tests were performed with the aim of checking whether the binding of the molecules of the present invention to the CB2 receptor has functional significance.
It is in fact known that the function activation of the CB2 receptor brings about, at intracellular level, inhibition of the enzymatic activity of adenylate cyclase and a reduction in the levels of the second-messenger cAMP, resulting in an increase in the conductance of the channels to potassium and an inhibition of proteic phosphorylation (Childers S. R. et al. Biochem. Parmacol. 1996, 52: 819-827).
The dosages of cAMP were performed on RBL-2H3+ cells flowing together in Petri dishes with six wells (Falcon); the cells were stimulated for 10′ at 37° C. with 1 μM of forskolin (Fluka) in 400 μl of medium without serum, containing 20 mM HEPES, 0.1 mg/ml BSA and 0.1 mM 1-methyl-3-isobutyl xanthine (Sigma) and either ethanol or alkanolamide molecules with or without the addition of HU-210. After incubation, the cells were extracted and the levels of cAMP were evaluated with a suitable Amersham kit in accordance with the producer's method. The data were expressed in IC50 μM.

[7] = ethanol, organic solvent or mixture
[8] = ethyl acetate, organic solvent or mixture
[9] = n-octanol, organic solvent or mixture

Ki [2] [µM] | Ki [3] [µM] | solubility [4, 7] [µg/mL] | Compound | ΔRM solvent 1 [1] | RM solvent 1 [1] | RF solvent 1 [1] | ΔRM solvent 2 [1] | RM solvent 2 [1] | RF solvent 2 [1] | solubility in water [5] | solubility in organic solvents: ethanol [5] | also measured
0.006 ± 0.0018 | > 15 | 10000 (≈ 26.9 mM) | CCCCCCCCCCCCCCCC(=O)NCCOC(=O)OCC [Example 1, N-[2-(ethoxycarbonyl)oxyethyl]hexadecanamide] | −1.001 | −0.213 | 0.62 | −0.403 | −0.368 | 0.70 | slightly soluble |  | solubility [4, 8]: 10000 µg/mL (≈ 26.9 mM); solubility [4, 9]: 10000 µg/mL (≈ 26.9 mM)
 |  | 10000 (≈ 25 mM) | CCCCCCCCCCCCCCCC(=O)NCCOC(=O)OCC(C)C [Example 2, N-[2-(isobutyloxycarbonyl)oxyethyl] hexadecanamide] | −1.076 | −0.288 | 0.66 | −0.467 | −0.432 | 0.73 | slightly soluble |  | solubility [4, 8]: 1000 µg/mL (≈ 2.5 mM); solubility [4, 9]: 10000 µg/mL (≈ 25 mM)
 |  | 10000 (≈ 25.9 mM) | CCCCCCCCCCCCCCCC(=O)NCCCOC(=O)OCC [Example 3, N-[3-(ethoxycarbonyl)oxypropyl]hexadecanamide] | −1.020 | −0.194 | 0.61 | −0.397 | −0.327 | 0.68 | slightly soluble |  | solubility [4, 8]: 10000 µg/mL (≈ 25.9 mM); solubility [4, 9]: 10000 µg/mL (≈ 25.9 mM)
 |  |  | CCCCCCCCCCCCCCCC(=O)NCCOC(=O)NCc1ccccc1 [Example 5] | −0.736 | 0.052 | 0.47 | −0.304 | −0.269 | 0.65 | slightly soluble |  | solubility in organic solvents: ethyl acetate, hot ([5]; ethyl acetate, hot): 10 mg/ml in ethyl; solubility in organic solvents: n-octanol, hot ([5]; n-octanol, hot): 10 mg/ml in ethyl
0.009 ± 0.0025 | > 15 | 10000 (≈ 22 mM) | CCCCCCCCCCCCCCCC(=O)NCCOC(=O)OCCN1CCCCC1 [Example 7, N-[2-[(2-piperidinoethoxy)carbonyl]oxyethyl] hexadecanamide] | 0.49 | 1.28 | 0.05 |  |  |  | slightly soluble |  | 
 |  | 10000 | CCCCCCCCCCCCCCCC(=O)NCCOC(=O)OCCN1CCCCC1.CS(=O)(=O)O [Example 8, N-[2-[(2-piperidinoethoxy)carbonyl]oxyethyl] hexadecanamide methane sulphonate] |  |  |  |  |  |  |  |  | solubility ([4]; DMSO, organic solvent or mixture): 10000 µg/mL; solubility ([4]; water): 10000 µg/mL
 |  |  | CCCCCCCCCCCCCCCC(=O)NCCOC1CCCO1 (centres unmarked) [Example 9, tetrahydrofuranyl ether of N-(2-hydroxyethyl) hexadecanamide] | −0.630 | 0.158 | 0.41 | −0.247 | −0.213 | 0.62 | slightly soluble | 10 mg/ml in ethanol | 
 |  |  | O=C(CCCCCCCC(=O)NCCOC1CCCO1)NCCOC1CCCO1 (centres unmarked) [Example 10, tetrahydrofuranyl ether of N,N^1-bis(2-hydroxyethyl) nonandiamide] | −0.424 | −0.035 | 0.52 | −0.584 | 0.105 | 0.44 |  | 10 mg/ml in ethanol | 
 |  |  | CCCCCCCCCCCCCCCC(=O)NCCOC1CCCCO1 (centres unmarked) [Example 11, tetrahydropyranyl ether of N-(2-hydroxyethyl) hexadecanamide] | 0.666 | 0.122 | 0.43 | −0.304 | −0.269 | 0.65 | slightly soluble |  | solubility in organic solvents: ethyl acetate ([5]; ethyl acetate): 10 mg/ml in ethyl; solubility in organic solvents: n-octanol ([5]; n-octanol): 10 mg/ml in ethyl
 |  |  | O=C(CCCCCCCC(=O)NCCOC1CCCCO1)NCCOC1CCCCO1 (centres unmarked) [Example 12, tetrahydropyranyl ether of N,N^1-bis(2-hydroxyethyl) nonandiamide] | −0.494 | −0.105 | 0.56 | −0.706 | −0.017 | 0.51 |  | 10 mg/ml in ethanol | 
 |  |  | CCCCCCCC/C=C\CCCCCCCC(=O)NCCOC(=O)OCC [Example 13, N-[2-(ethoxycarbonyl)oxyethyl] oleoylamide] | −0.984 | −0.231 | 0.63 | −0.365 | −0.347 | 0.69 | slightly soluble | 10 mg/ml in ethanol, | 
> 15 | > 15 |  | CCCCC1C(=O)N(c2ccccc2)N(c2ccccc2)C1=O [phenyl butazone, reference compound] |  |  |  |  |  |  |  |  | 

Compound | Ki [2] [µM] | Ki [3] [µM] | solubility [4, 7] [µg/mL] | ΔRM solvent 1 [1] | RM solvent 1 [1] | RF solvent 1 [1] | ΔRM solvent 2 [1] | RM solvent 2 [1] | RF solvent 2 [1] | solubility in water [5] | solubility in organic solvents: ethanol [5] | also measured
N,N^1-bis[2-(ethoxycarbonyl)oxyethyl] nonandiamide [Example 4] | 0.002 ± 0.0009 | > 15 |  | −0.866 | −0.477 | 0.75 | −0.723 | −0.035 | 0.52 | slightly soluble | 10 mg/ml in ethanol, | IC50 ([6]; 10' at 37° C., read-out: IC50 on forskolin-stimulated cAMP): 1.8 µM; IC50 ([6]; + HU-210 (0.5 μM), read-out: IC50 on forskolin-stimulated cAMP with HU-210): > 20 µM
